Tests used:
[1] = tested on: brain (striatal) GABA, glutamine and glutamate levels; assay: Striatal tissue neurotransmitter contents after oral glutamine (HPLC-EC); type: in vivo, Sprague Dawley rats; details: Gln by gavage, striata 2.5 hrs after dosing, vs saline (FIG. 3)
Method: (§1) Male adult Sprague Dawley (SD) rats (˜250 g) (n=9) were reared under and exposed to a 12 hr light/dark cycle, and provided with food (16% protein) and water ad libitum. Gln (0.5 grams per kilogram (g/Kg) or 1.0 g/Kg, in saline) or saline were administered by gavage. Rats were sacrificed by decapitation 2.5 hours (h) later.
To measure GABA contents, brains were quickly dissected on a chilled dissection board. Striata were homogenized with HClO4 and neutralized with 0.1 M Borate buffer (1:10). Data were normalized by the wet weights of the samples.
(§2) GABA was measured by HPLC, using an ODS column and OPA-sulfite derivation with electrochemical detection. OPA-sulfite HPLC-EC derivation was used to measure GABA levels in both brain tissue and microdialysis samples. The samples were derivatized at 4° C. to allow usage of an auto-sampler (Alltech 580). The detector used was an ESA Coulochem® II 5100A with an ESA microdialysis cell.
(§3) Data are presented as mean+/−S.E.M. ANOVA or t-test was used to determine differences between groups (significance level, p<0.05).

[2] = tested on: GABA release in rat striatum; assay: Microdialysis of spontaneous and NMDA-evoked GABA release in rat striatum; type: in vivo, rats; details: striatal microdialysis, mean±S.E.M.
Method: as §2, §3
Microdialysis was carried out in freely moving rats. Rats were anesthetized, and CMA/11 guide cannulas were permanently implanted into right striatum (AP=+0.5, ML=−3.0 from Bregma, DV=−3.3 mm from Dura) 1 week prior to microdialysis sampling. Dialysis collection was performed using a CMA/11 probe (4 mm), perfused with artificial cerebrospinal fluid (aCSF) at […] and collected at 20 min intervals.
GABAergic neurons were stimulated by NMDA (500 μM) in aCSF, 1 hr after Gln administration by gavage.

[3] = Plasma glutamate and glutamine levels after oral glutamine; type: in vivo, Sprague Dawley rats; details: Gln by gavage, vs saline (FIG. 4)
Method: as §1, §3

striatal Gln levels [1]: significantly increased
plasma Gln levels [3]: increased
Structure (SMILES): NC(=O)CC[C@H](N)C(=O)O [Gln, glutamine]
striatal Glu levels [1]: slightly decreased
Maximal spontaneous GABA release ([2]; Gln by gavage, freely moving rats, saline 111±7%, p<0.05 (FIG. 6)): 141±12%
NMDA-evoked GABA release ([2]; NMDA 500 μM in aCSF 1 hr after Gln by gavage, saline 177±40% (FIG. 7)): 252±37%
plasma Glu levels [3]: not
